According to the supplement of paper PMC10307832:

Legend:
Experiment in all cases: relative viability (nuclei count vs DMSO), 5 days (fraction); higher = more cells survive
[1] = compound: CC1=CC(=NN1)NC2=CC(=NC(=N2)/C=C/C3=CC=CC=C3)N4CCN(CC4)C
In short: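 Lung cancer cell lines in 1536-well plates were exposed by pinning to five library-drug doses (not always all listed) √10 apart, following an overnight hold at 37 °C. MetaXpress counted Hoechst-stained nuclei from 4× images taken after 5 days without medium change. Viability is the median ratio of treated-well to vehicle-well nuclei across plates. Plates required control CV below 25% and at least one doubling.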

[2] = compound: CC1=CC(=NN1)NC2=CC(=NC(=N2)/C=C/C3=CC=CC=C3)N4CCN(CC4)C + CCNC(=O)c1noc(-c2cc(C(C)C)c(O)cc2O)c1-c1ccc(CN2CCOCC2)cc1 [Luminespib] (partner 0.01 µM)
In short: (§1)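 Lung cancer cell lines were pin-tool dosed in 1536-well plates on the day after seeding, with either a lone drug or a fixed anchor-drug dose plus five library-drug doses (not always all listed) in √10 steps. Nuclei were counted on 4× images after 5 days. Relative viability is the ratio of treated-well to vehicle-well nuclei counts, with each value a median of duplicate plates.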

Bortezomib + Olaparib = compound: CC(C)C[C@H](NC(=O)[C@H](Cc1ccccc1)NC(=O)c1cnccn1)B(O)O [Bortezomib] + O=C(c1cc(Cc2n[nH]c(=O)c3ccccc23)ccc1F)N1CCN(C(=O)C2CC2)CC1 [Olaparib] (partner 8 µM)
In short: as §1

Bortezomib + Trametinib = compound: CC(C)C[C@H](NC(=O)[C@H](Cc1ccccc1)NC(=O)c1cnccn1)B(O)O [Bortezomib] + CC(=O)Nc1cccc(-n2c(=O)n(C3CC3)c(=O)c3c(Nc4ccc(I)cc4F)n(C)c(=O)c(C)c32)c1 [Trametinib] (partner 0.02 µM)
In short: as §1

Cell Line | relative viability ([1]; 0.08 µM) | relative viability ([1]; 0.253 µM) | relative viability ([1]; 0.8 µM) | relative viability ([1]; 2.53 µM) | relative viability ([1]; 8 µM) | relative viability ([2]; first compound 0.08 µM) | relative viability ([2]; first compound 0.253 µM) | relative viability ([2]; first compound 0.8 µM) | relative viability ([2]; first compound 2.53 µM) | relative viability ([2]; first compound 8 µM) | relative viability (Bortezomib + Olaparib; first compound 0.0002 µM) | relative viability (Bortezomib + Olaparib; first compound 0.000632 µM) | relative viability (Bortezomib + Olaparib; first compound 0.002 µM) | relative viability (Bortezomib + Olaparib; first compound 0.006325 µM) | relative viability (Bortezomib + Olaparib; first compound 0.02 µM) | relative viability (Bortezomib + Trametinib; first compound 0.0002 µM) | relative viability (Bortezomib + Trametinib; first compound 0.000632 µM) | relative viability (Bortezomib + Trametinib; first compound 0.002 µM) | relative viability (Bortezomib + Trametinib; first compound 0.006325 µM) | relative viability (Bortezomib + Trametinib; first compound 0.02 µM)
NCI-H2126 | 0.993 | 1.04 | 0.961 | 0.875 | 0.41 | 0.934 | 1.01 | 0.882 | 0.812 | 0.224 | 0.851 | 0.903 | 0.9 | 0.794 | 0.184 | 0.548 | 0.599 | 0.54 | 0.496 | 0.202
NCI-H2170 | 0.971 | 1.04 | 0.868 | 0.77 | 0.266 | 0.705 | 0.692 | 0.688 | 0.444 | 0.14 | 0.583 | 0.576 | 0.584 | 0.11 | 0.102 | 0.892 | 0.921 | 0.972 | 0.229 | 0.142
NCI-H2228 | 0.846 | 1.18 | 0.782 | 0.179 | 0.0666 | 0.178 | 0.143 | 0.139 | 0.128 | 0.054 | 0.541 | 0.615 | 0.289 | 0.0866 | 0.0966 | 0.469 | 0.505 | 0.32 | 0.123 | 0.0916
NCI-H2342 | 0.913 | 0.938 | 1.1 | 0.916 | 0.366 | 0.543 | 0.699 | 0.705 | 0.546 | 0.536 | 0.514 | 0.503 | 0.382 | 0.473 | 0.273 | 0.869 | 0.965 | 0.815 | 0.924 | 0.386
NCI-H2347 | 0.966 | 1.11 | 1.1 | 0.891 | 0.525 | 0.524 | 0.371 | 0.501 | 0.389 | 0.22 | 0.413 | 0.572 | 0.338 | 0.245 | 0.249 | 0.263 | 0.283 | 0.193 | 0.243 | 0.232
NCI-H2405 | 0.979 | 0.889 | 1.06 | 0.458 | 0.201 | 0.845 | 0.827 | 0.655 | 0.526 | 0.186 | 0.859 | 0.834 | 0.334 | 0.199 | 0.161 | 0.579 | 0.646 | 0.523 | 0.223 | 0.188
NCI-H3122 | 1.01 | 0.857 | 0.982 | 0.956 | 0.308 | 0.0829 | 0.0907 | 0.096 | 0.0908 | 0.0887 | 0.557 | 0.621 | 0.604 | 0.243 | 0.0898 | 0.215 | 0.276 | 0.222 | 0.232 | 0.124
